Values of other authors in US20100104622A1, “Ligand Targeted Nanocapsules for the delivery of RNAi and other Agents” (priority 2008, published 2010).

Tested on: advanced stage melanoma
Conditions: melanoma patients

Compound: COc1cccc2c1C(=O)c1c(O)c3c(c(O)c1C2=O)C[C@@](O)(C(=O)CO)C[C@@H]3O[C@H]1C[C@H](N)[C@H](O)[C@H](C)O1 [Doxorubicin]
- efficacy in advanced stage melanoma: essentially ineffective
